Patent US8722868B2, “Glycosyltransferase, novel glycosyltransferase gene, and novel sugar donor compound” (National University Corporation Tokyo University of …, priority 2009, dated 2014)

Molecular target: T1, delphinium-derived glycosyltransferase (SEQ ID NO: 3), recombinant (Delphinium grandiflorum, UniProt E3W9M3)
T1 construct: made in house; host or cells: Escherichia coli JM109 (crude lysate supernatant)
T1 sequence (E3W9M3 29-505 limits assumed): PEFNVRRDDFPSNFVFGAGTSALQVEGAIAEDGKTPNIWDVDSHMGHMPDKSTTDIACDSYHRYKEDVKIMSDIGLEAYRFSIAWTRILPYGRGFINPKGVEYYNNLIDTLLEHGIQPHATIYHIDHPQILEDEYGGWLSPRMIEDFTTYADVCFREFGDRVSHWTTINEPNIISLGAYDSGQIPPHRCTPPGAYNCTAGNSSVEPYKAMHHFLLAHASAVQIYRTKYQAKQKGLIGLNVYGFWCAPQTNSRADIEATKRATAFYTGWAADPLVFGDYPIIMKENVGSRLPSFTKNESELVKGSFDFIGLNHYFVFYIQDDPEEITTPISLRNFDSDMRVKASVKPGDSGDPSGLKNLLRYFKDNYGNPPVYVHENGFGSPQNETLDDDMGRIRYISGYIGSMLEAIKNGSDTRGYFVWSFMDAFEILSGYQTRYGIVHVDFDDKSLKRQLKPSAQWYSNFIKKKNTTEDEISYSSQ
Test: Glycosyl transfer reaction with delphinium-derived glycosyltransferase gene expressed in Escherichia coli
Type: biochemical, delphinium (Delphinium grandiflorum L.)
Details: recombinant enzyme from E. coli, cyanidin 3-O-β-glucoside as sugar receptor
Description: PCR was performed using a sense primer (“ATGCCCGAATTTAATGTCAG” (SEQ ID NO: 19)) designed so as to add a methionine residue for the initiation of translation to a sequence from which 28 amino acid residues at the N-terminus predicted as corresponding to vacuolar transfer signals of DgVA7GT had been removed and an antisense primer (“CTG TGA AGA GTA CGA TAT C” (SEQ ID NO: 20)) designed so as to lack a stop codon. The PCR product was ligated to a pTrcHis2-TOPO vector (Invitrogen) using a pTrcHis2-TOPO TA expression Kit (Invitrogen), followed by transformation of the Escherichia coli JM109 strain. DNA was extracted from the transformed Escherichia coli and the DNA nucleotide sequence was analyzed in the above manner. Accordingly, the direction of cDNA introduction and the nonoccurrence of a PCR-induced nucleotide substitution were confirmed.
The transformed Escherichia coli was seeded on an LB medium containing […] ampicillin (5 ml), followed by shake culture at 30° C. for 4 hours. Then, IPTG was added thereto to result in 1 mM, followed by shake culture at 16° C. for 2 hours. The cultured Escherichia coli was harvested via centrifugation at 1,800×g. The medium was removed therefrom. A 0.1 M citric acid buffer (pH 5.6) (150 μl) was added thereto, followed by sufficient mixing. […]

SMILES | Sugar donor function with recombinant delphinium-derived glycosyltransferase (reaction product)
COc1cc(C(=O)OC2OC(CO)C(O)C(O)C2O)ccc1O (centres unmarked) | capable of transferring glucose to the 7 position of the anthocyanin skeleton using vanillyl glucose as a sugar donor
O=C(OC1OC(CO)C(O)C(O)C1O)c1ccc(O)cc1 (stereo not drawn) [1-O-β-p-hydroxybenzoyl glucose] | cyanidin 3,7-diglucoside formed as a result of transfer of glucose to a hydroxyl group at the 7 position of cyanidin 3-glucoside
